# Tested on: α2-subtype of the human α-adrenergic receptor
# Test: SPA assay for affinity for the α2-subtype of the human α-adrenergic receptor (high throughput screening)
# Format: binding
# Conditions: at a concentration of 10 μM
# Method: The compounds according to the invention are ligands of the pain-relevant α2-subtype of the human α-adrenergic receptor. The affinity for the α2-subtype of the human α-adrenergic receptor was determined by means of a conventional SPA assay for high throughput screening, such as is described in John P. Devlin, High Throughput Screening, Marcel Dekker Inc. 1997, page 307 to 316. This literature is incorporated herein by reference and thus forms part of the disclosure. The following affinities were determined at a concentration of 10 μM: […]
row,"alpha2 affinity, 10 μM",SMILES
1,34%,"CC(C)(C)Nc1c(-c2ccccc2F)nc2nc[nH]n12 [Example 43, tert-Butyl-[5-(2-fluorophenyl)-imidazo[1,2-b][1,2,4]triazol-6-yl]-amine]"
2,41%,"CC(C)(C)Nc1c(-c2cccc3ccccc23)nc2nc[nH]n12 [Example 45, tert-Butyl-(5-naphthalen-1-yl-imidazo[1,2-b][1,2,4]triazol-6-yl)-amine]"
3,46%,"c1ccc2c(-c3nc4nc[nH]n4c3NC3CCCCC3)cccc2c1 [Example 46, Cyclohexyl-(5-naphthalen-1-yl-imidazo[1,2-b][1,2,4]triazol-6-yl)-amine]"
4,36%,"CC(=O)Nc1ccc(-c2nc3nc[nH]n3c2NC2CCCCC2)cc1 [Example 48, N-[4-(6-Cyclohexylamino-imidazo[1,2-b][1,2,4]triazol-5-yl) -phenyl]-acetamide]"
5,36%,"Cc1ccc(-c2nc3sccn3c2NC2CCCCC2)c(C)c1 [Example 50, Cyclohexyl-[6-(2,4-dimethyl-phenyl)-imidazo[2,1-b]thiazol-5-yl]-amine]"
6,39%,"Cc1ccc(C)c(-c2nc3sccn3c2NC2CCCCC2)c1 [Example 51, Cyclohexyl-[6-(2,5-dimethylphenyl)-imidazo[2,1-b]thiazol-5-yl]-amine]"

# Further lines, the compound ahead of its results:
row,SMILES,"alpha2 affinity, 10 μM"
1,"CCCCNc1c(-c2ccc(C(C)(C)C)cc2)nc2sc(C)cn12 [Example 42, Butyl-[6-(4-tert-butyl-phenyl)-2-methyl-imidazo[2,1-b]thiazol-5-yl]-amine]",36%
2,"CC(C)(C)Nc1c(-c2ccccc2F)nc2sccn12 [Example 44, tert-Butyl-[6-(2-fluorophenyl)-imidazo[2,1-b]thiazol-5-yl]-amine]",38%
3,"CC(C)(C)CC(C)(C)Nc1c(-c2ccccc2Br)nc2nc[nH]n12 [Example 47, [5-(2-Bromophenyl)-imidazo[1,2-b][1,2,4]triazol-6-yl]-(1,1,3,3-tetramethyl-butyl)-amine]",42%
4,"Cc1ccc(C)c(-c2nc3nc[nH]n3c2NC(C)(C)C)c1 [Example 49, tert-Butyl-[5-(2,5-dimethyl-phenyl)-imidazo[1,2-b][1,2,4]triazol-6-yl]-amine]",38%
5,"CC(=O)N(c1c(-c2ccc(C)cc2)nc2sccn12)C(C)(C)C [Example 52, N-tert-Butyl-N-(6-p-tolyl-imidazo[2,1-b]thiazol-5-yl)-acetamide]",51%
6,"Cc1ccc(-c2nc3nc[nH]n3c2NC(C)(C)CC(C)(C)C)c(C)c1 [Example 53, [5-(2,4-dimethyl-phenyl)-imidazo[1,2-b][1,2,4]triazol-6-yl]-(1,1,3,3-tetramethyl-butyl) -amine]",43%
7,"Cc1ccc(C)c(-c2nc3nc[nH]n3c2NC(C)(C)CC(C)(C)C)c1 [Example 54, [5-(2,5-Dimethyl-phenyl)-imidazo [1,2-b][1,2,4]triazol-6-yl]-(1,1,3,3-tetramethyl-butyl) -amine]",56%
8,"CCCCN(C(C)=O)c1c(-c2c(F)cccc2Cl)nc2nc[nH]n12 [Example 55, N-Butyl-N-[5-(2-chloro-6-fluorophenyl)-imidazo[1,2-b][1,2,4]triazol-6-yl]-acetamide]",39%
9,"CCCCN(C(C)=O)c1c(-c2ccc(C(C)(C)C)cc2)nc2sc(C)cn12 [Example 56, N-Butyl-N-[6-(4-tert-butyl-phenyl)-2-methyl-imidazo[2,1-b]thiazol-5-yl]-acetamide]",46%
